PubChem BioAssay (NCI)
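Five compound concentrations were applied to cells in 96-well plates for 48 hours; endpoints were derived by simple linear interpolation of the resulting dose-response curve. GI50 marks 50% less growth. At the TGI there is no net growth.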

Experiments:
Test in all cases: NCI tumour cell line growth inhibition, 48 h
NCI-H226 lung = system: NCI-H226 lung
ACHN renal = system: ACHN renal
SK-MEL-2 melanoma = system: SK-MEL-2 melanoma
UO-31 renal = system: UO-31 renal
SW-620 colon = system: SW-620 colon
UACC-257 melanoma = system: UACC-257 melanoma
M14 melanoma = system: M14 melanoma
HCT-116 colon = system: HCT-116 colon
OVCAR-3 ovarian = system: OVCAR-3 ovarian
SF-268 CNS = system: SF-268 CNS

| SMILES | GI50 (NCI-H226 lung) [µM] | TGI (NCI-H226 lung) [µM] | GI50 (ACHN renal) [µM] | TGI (ACHN renal) [µM] | GI50 (SK-MEL-2 melanoma) [µM] | TGI (SK-MEL-2 melanoma) [µM] | GI50 (UO-31 renal) [µM] | TGI (UO-31 renal) [µM] | GI50 (SW-620 colon) [µM] | TGI (SW-620 colon) [µM] | GI50 (UACC-257 melanoma) [µM] | TGI (UACC-257 melanoma) [µM] | GI50 (M14 melanoma) [µM] | TGI (M14 melanoma) [µM] | GI50 (HCT-116 colon) [µM] | TGI (HCT-116 colon) [µM] | GI50 (OVCAR-3 ovarian) [µM] | TGI (OVCAR-3 ovarian) [µM] | GI50 (SF-268 CNS) [µM] | TGI (SF-268 CNS) [µM] |
| --- | --- | --- | --- | --- | --- | --- | --- | --- | --- | --- | --- | --- | --- | --- | --- | --- | --- | --- | --- | --- |
| O=C(COc1cccc(/C=C2\CSc3ccccc3C2=O)c1)c1ccc(Cl)cc1 | 4.43 | 16 | 1.78 | 3.5 | 1.76 | 3.45 | 1.63 | 3.32 | 0.231 | 0.606 | 2.68 | 6.85 | 1.63 | 3.09 | 0.689 | 1.95 | 1.8 | 3.51 | 2.16 | 5.2 |
| Nc1ncnc2c1cnn2Cc1ccc(Cl)cc1 |  | > 100 |  | > 100 | > 100 | > 100 |  | > 100 |  | > 100 |  | > 100 |  | > 100 |  | > 100 |  | > 100 |  | > 100 |
| C=C1C(=O)O[C@H]2[C@H]1CC/C(COC(=O)c1ccccc1)=C\CC[C@@]1(C)O[C@@H]21 | 1.62 | 3.74 | 1.37 | 2.86 | 1.94 | 4.02 | 1.2 | 2.49 | 0.407 | 1.75 | 1.51 | 3.37 | 1.32 | 3.27 | 0.469 | 1.82 | 0.482 | 1.74 | 1.56 | 3.47 |
| COc1ccc(-c2cc(=O)c3c(OC)c(OC)c(OC)c(OC)c3o2)c(OC)c1 |  | > 100 |  | 84.8 |  | 39.2 |  | 62.8 |  | > 100 |  | 49.5 |  | 46.7 |  | 49.5 |  | 53.7 |  | > 100 |
| C=CC1=C(C)C2=NC1=CC1=NC(=CC3=C(C)C4=C(O)C(C(=O)OC)C(=C5NC(=C2)C(C)C5CCC(=O)OC)C4=N3)C(CC)=C1C (stereo not given) |  | > 100 |  | > 100 |  | > 100 |  | > 100 |  | > 100 |  | > 100 |  | > 100 |  | > 100 |  | > 100 |  | > 100 |
| C/C(=N\N=C(N)N)C(CN(C)C)C(c1ccccc1)c1c(O)c2ccccc2oc1=O (stereo not given) |  | > 100 |  | > 100 |  | > 100 |  | > 100 |  | > 100 |  | > 100 |  | > 100 |  | > 100 |  | > 100 |  | > 100 |
| Cn1cnc([N+](=O)[O-])c1Sc1nnnn1-c1ccccc1 |  | 36.3 |  | 27 |  | 29.5 |  | 27.9 |  | 20.2 |  | 27.6 |  | 23.7 |  | 23.4 |  | 26.6 |  | 39.4 |
| NC1CCC(N[C@@H]2C[C@H]2c2ccccc2)CC1 (stereo not given in full) | > 100 | > 100 | > 100 | > 100 | > 100 | > 100 | 67.4 | > 100 | > 100 | > 100 | > 100 | > 100 | > 100 | > 100 | > 100 | > 100 | > 100 | > 100 | > 100 | > 100 |
| COc1cc2c(cc1OCCCCOc1ccc(-c3nc4ccccc4s3)cc1)N=C[C@@H]1CCCN1C2=O | 1.71 | 3.89 | 0.742 | 2.59 | 0.393 | 1.83 | 0.581 | 2.43 | 0.426 | 1.77 | 2.63 | 7.06 | 0.908 | 2.39 | 0.511 | 1.62 | 0.477 | 3.47 | 0.998 | 3.58 |
| C=C1C[C@@]2(C)C(CC[C@]3(C)C2CC=C2C4CC(C)(C)C[C@@H](OC(=O)/C(C)=C\C)[C@]4(C(=O)O)CC[C@]23C)C(C)(C)C1=O (stereo not given in full) | 2.23 | 6.16 | 2.04 | 4.12 | 5.93 | 24.4 | 1.89 | 3.92 | 2.74 | 9.31 | 3.53 | 16.4 | 2.39 | 8.49 | 1.81 | 3.91 | 2.08 | 5 | 6.76 | 28 |
| CCOC(=O)c1cc(C(=O)c2cc(OC)c(OC)c(OC)c2)n2ccccc12 | 19.3 | > 100 | 10.1 | > 100 | 0.169 | > 74.8 |  | > 100 | 0.0504 | > 100 | 35.1 | > 100 | 0.0377 | 0.388 | 0.0353 | > 100 | 0.0334 | 4.11 | 1.12 | > 100 |
| COC1=C(Br)C(=O)C2=C(C1=O)C1C3=C(C(=O)C=CC3=O)C2c2ccccc21 (stereo not given) | 21 | 46.4 | 14.8 | 34.5 | 20.6 | 61.2 | 12.2 | 41.2 | 4.56 | > 100 | 38.2 | > 100 | 33.4 | 80.4 | 5.91 | > 100 | 5.43 | 28.3 | 18.2 | 59.6 |
